Reference: US20260103473A1 (Avanc Pharmaceutical Co., Ltd., priority 2022, published 2026)
Counter-ions that a name gives are not always drawn.

How the values were obtained:
Type in all cases: physicochemical
[1] = Test of solubility of salts of the compound of formula (I) in water; conditions: room temperature, Table 10; for Solution state: after addition of water; for solubility: thermodynamic from solid, water, monocitrate vs dicitrate
Procedure: About 4-20 mg of salt of the compound of formula (I) was weighed, and the salt was added to the EP tube. A certain amount of solvent was added successively at room temperature. The solution was stirred, and it was observed whether the solid was completely dissolved. If the solid had not been completely dissolved after 10.0 mL of solvent was added, the experiment was stopped. The solubility of the compound in the solvent was estimated based on the volume of solvent used when the solid was completely dissolved.

[2] = Hygroscopicity of salts of the compound of formula (I) (weight gain at 95% humidity); conditions: humidity 50% raised to 95% in increments of 15%, 60 min each
Procedure: The compound of formula (I) was placed in a humid environment, wherein the initial humidity of the environment was 50%, and the humidity was increased to 95% in increments of 15%. The maintenance time for each humidity gradient was 60 min. After the ambient humidity was maintained at 95% for 60 min, the weight gain of each salt form was tested to determine the hygroscopicity of the corresponding salt form.
According to the test procedures of Test Example 2, the solubility of the monocitrate salt and dicitrate salt of the compound of formula (I) were respectively tested.

[3] = Moisture absorption study of crystal forms by dynamic vapor sorption (DVS) with XRPD afterwards; conditions: for weight increase at 80% RH during the adsorption process / weight increase at 95% RH: DVS, with reference to the mass at 50% RH; for XRPD pattern after DVS testing: after humidity cycle 50%-95%-50%
Procedure: Dynamic vapor sorption and desorption analysis of crystal forms were performed using DVS Intrinsic (SMS, UK) to evaluate the hygroscopicity of the crystal forms. The gradient mode was used for the test. The humidity change was 50%-95%-50%. The humidity change amount of each gradient was 15%. The gradient endpoint was determined in the dm/dt manner, with dm/dt less than 0.002% and maintained for 10 minutes as the gradient endpoint, or the maximum maintenance time of each gradient was 60 min. After the test was completed, XRPD analysis was performed on the sample to confirm whether the solid form changed.

[4] = Stability study of crystal forms (XRPD characterization); conditions: high temperature (60° C.), high humidity (25° C./92.5% RH), illumination (25° C./4500 Lux), accelerated (40° C./75% RH); up to 15 days
Procedure: Stability studies under conditions of high temperature (60° C.), high humidity (25° C./92.5% RH), illumination (25° C./4500 Lux), and accelerated condition (40° C./75% RH) were performed on the crystal forms of the compound of formula (I). Samples were taken for XRPD characterization on the 7th and 15th days respectively.
The crystal form G was stored at room temperature for 1 day.

[5] = Dynamic solubility test in biological media and water; conditions: for solubility at 0.5 h / solubility at 2 h / solubility at 24 h: thermodynamic from solid
Excerpt: Wherein, FaSSIF could be used to simulate the intestinal fluid in the small intestine in the human pre-prandial hunger state; FeSSIF could be used to simulate the intestinal fluid in the small intestine in the human post-prandial satiety state; FaSSGF could be used to simulate the stomach in the empty stomach in the human hunger state.

[6] = Description of crystal form A: hygroscopicity and solubility in solvents
[7] = monocitrate vs dicitrate, Table 11

Compound: CN1CCN(C2CCN(c3ccc(Nc4ncc5sc(C(=O)N(C)C)c(C6CCCC6)c5n4)nc3)CC2)CC1 [Dicitrate salt]
- Solution state [1]: clear
- solubility [1]: > 33000 µg/mL
- Weight gain at 95% humidity [2, 7]: 0.64%

Compound: L-Tartrate
- Weight gain at 95% humidity ([2]; Table 9): 8.18%

Compound: CN1CCN(C2CCN(c3ccc(Nc4ncc5sc(C(=O)N(C)C)c(C6CCCC6)c5n4)nc3)CC2)CC1 [crystal form B]
- weight increase at 80% RH during the adsorption process [3]: 0.24%
- weight increase at 95% RH [3]: 0.69%
- XRPD pattern after DVS testing [3]: did not change significantly
- crystal form transformation by XRPD [4]: did not undergo crystal form transformation

Compound: CN1CCN(C2CCN(c3ccc(Nc4ncc5sc(C(=O)N(C)C)c(C6CCCC6)c5n4)nc3)CC2)CC1 [crystal form D]
- weight increase at 80% RH during the adsorption process [3]: 0.85%
- weight increase at 95% RH [3]: 4.45%
- XRPD pattern after DVS testing [3]: did not change significantly
- crystal form transformation by XRPD [4]: did not undergo significant crystal form transformation

Compound: CN1CCN(C2CCN(c3ccc(Nc4ncc5sc(C(=O)N(C)C)c(C6CCCC6)c5n4)nc3)CC2)CC1 [crystal form A]
- weight increase at 80% RH during the adsorption process [3]: 0.25%
- weight increase at 95% RH [3]: 0.64%
- XRPD pattern after DVS testing [3]: did not change significantly
- crystal form transformation by XRPD [4]: without any crystal form transformation occurring
- XRPD of the remaining solid ([5]; FaSSGF): No solid remained
- Final pH ([5]; FaSSGF, initial pH 1.6): 2.5
- XRPD of the remaining solid ([5]; FaSSIF): No solid remained
- Final pH ([5]; FaSSIF, initial pH 6.5): 4.3
- XRPD of the remaining solid ([5]; FeSSIF): No solid remained
- Final pH ([5]; FeSSIF, initial pH 5.0): 4.6
- Final pH ([5]; Water): 3.8
- XRPD of the remaining solid ([5]; Water): No solid remained
- solubility at 0.5 h ([5]; fassgf or other biorelevant, FaSSGF, pH 1.6, 0.5 h): > 5470 µg/mL
- solubility at 2 h ([5]; fassgf or other biorelevant, FaSSGF, pH 1.6, 2 h): > 5480 µg/mL
- solubility at 24 h ([5]; fassgf or other biorelevant, FaSSGF, pH 1.6, 24 h): > 5380 µg/mL
- solution state after suspension for 24 h ([5]; four media (FaSSIF, FeSSIF, FaSSGF, water)): still clear
- time to dissolve ([5]; suspended in four media (FaSSIF, FeSSIF, FaSSGF, water)): ≤ 0.5 h
- solubility at 0.5 h ([5]; FaSSIF, pH 6.5, 0.5 h): > 5150 µg/mL
- solubility at 2 h ([5]; FaSSIF, pH 6.5, 2 h): > 5110 µg/mL
- solubility at 24 h ([5]; FaSSIF, pH 6.5, 24 h): > 5180 µg/mL
- solubility at 0.5 h ([5]; FeSSIF, pH 5.0, 0.5 h): > 5460 µg/mL
- solubility at 2 h ([5]; FeSSIF, pH 5.0, 2 h): > 5480 µg/mL
- solubility at 24 h ([5]; FeSSIF, pH 5.0, 24 h): > 5470 µg/mL
- solubility at 0.5 h ([5]; Water, 0.5 h): > 5540 µg/mL
- solubility at 2 h ([5]; Water, 2 h): > 5450 µg/mL
- solubility at 24 h ([5]; Water, 24 h): > 5480 µg/mL
- hygroscopicity (description) [6]: slightly hygroscopic
- solubility (description) ([6]; 0.1 mol/L hydrochloric acid solution): readily soluble
- solubility (description) ([6]; Water): readily soluble
- solubility (description) ([6]; acetic acid): readily soluble
- solubility (description) ([6]; ethanol): nearly insoluble
- solubility (description) ([6]; methanol): slightly soluble

Compound: CN1CCN(C2CCN(c3ccc(Nc4ncc5sc(C(=O)N(C)C)c(C6CCCC6)c5n4)nc3)CC2)CC1 [crystal form C]
- weight increase at 80% RH during the adsorption process [3]: 0.42%
- weight increase at 95% RH [3]: 3.45%
- XRPD pattern after DVS testing [3]: did not change significantly
- crystal form transformation by XRPD [4]: did not undergo crystal form transformation

Compound: CN1CCN(C2CCN(c3ccc(Nc4ncc5sc(C(=O)N(C)C)c(C6CCCC6)c5n4)nc3)CC2)CC1.O=C(O)CC(O)(CC(=O)O)C(=O)O [Monocitrate salt]
- Solution state [1]: clear
- solubility [1]: > 33000 µg/mL
- Weight gain at 95% humidity [2, 7]: 3.45%
